Assay results: US20220324835A1 (Nurix Therapeutics, Inc., priority 2018, published 2022)
Read-outs that look alike come from different tables or passages of the source.

Experiments:
Type in all cases: cell-based
primary human NK cells = test: NK cell activation assessed by cytokine secretion (coculture with K562 NucRed target cells); conditions: K562, NK cells cocultured with K562 NucRed, 1:1 E/T; for fold induction at 0.625 µM: 0.625 μM compound; for fold induction at 2.5 µM: 2.5 μM compound; for fold induction at 10 µM: 10 μM compound
Procedure, shortened: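 Read-out is cytokine secretion (IFNγ, TNFα, MIP1β; ELISA or Luminex) as fold over coculture without inhibitor, >2.0-fold taken as positive. Donor NK cells, IL-2 primed (60 ng/mL) overnight, received compound 1 h ahead (e.g. 0.1–10 μM, DMSO <0.1%) and were mixed 6 h with K562 NucRed targets at e.g. 5:1, 1:1, 1:5.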

[1] = tested on: primary human total T-cells; test: T-cell activation assessed by CD69 expression
Procedure, shortened: (§1)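 Primary human T-cells (>95% CD3+, negative selection from PBMC) were pre-incubated with inhibitor (e.g. 10, 1.11, 0.123 μM; DMSO <0.1%) for 1 h at 37 °C. They were then stimulated 48 h with plate-bound OKT3 (coated at 10 μg/mL), alone or with 5 μg/mL soluble anti-CD28. Results are fold change over uninhibited, identically stimulated cells.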

[2] = tested on: primary human total T-cells; test: T-cell activation assessed by cytokine secretion (GM-CSF, IFNγ, TNFα)
Procedure, shortened: as §1

[3] = read-out: IFNγ secretion, fold change over baseline
[4] = read-out: TNFα secretion, fold change over baseline
[5] = CD3/CD28 stimulation, CD4 T-cells, read-out: % CD69+ (CD4)
[6] = CD3/CD28 stimulation, CD8 T-cells, read-out: % CD69+ (CD8)
[7] = CD3 alone stimulation, CD4 T-cells, read-out: % CD69+ (CD4)
[8] = CD3 alone stimulation, CD8 T-cells, read-out: % CD69+ (CD8)
[9] = CD3/CD28 stimulation, read-out: GM-CSF secretion
[10] = CD3/CD28 stimulation, read-out: IFNγ secretion
[11] = CD3/CD28 stimulation, read-out: TNFα secretion
[12] = CD3 alone stimulation, read-out: GM-CSF secretion
[13] = CD3 alone stimulation, read-out: IFNγ secretion
[14] = CD3 alone stimulation, read-out: TNFα secretion

| Structure (SMILES) | fold induction at 0.625 µM (primary human NK cells; [3]) | fold induction at 0.625 µM (primary human NK cells; [4]) | fold induction at 2.5 µM (primary human NK cells; [3]) | fold induction at 2.5 µM (primary human NK cells; [4]) | fold induction at 10 µM (primary human NK cells; [3]) | fold induction at 10 µM (primary human NK cells; [4]) | fold induction at 1.11 µM [1, 5] | fold induction at 10 µM [1, 5] | fold induction at 1.11 µM [1, 6] | fold induction at 10 µM [1, 6] | fold induction at 1.11 µM [1, 7] | fold induction at 10 µM [1, 7] | fold induction at 1.11 µM [1, 8] | fold induction at 10 µM [1, 8] | fold induction at 1.11 µM [2, 9] | fold induction at 1.11 µM [2, 10] | fold induction at 1.11 µM [2, 11] | fold induction at 10 µM [2, 9] | fold induction at 10 µM [2, 10] | fold induction at 10 µM [2, 11] | also measured |
| --- | --- | --- | --- | --- | --- | --- | --- | --- | --- | --- | --- | --- | --- | --- | --- | --- | --- | --- | --- | --- | --- |
| Cn1cnnc1[C@@H]1C[C@@H]1c1cccc(N2Cc3c(ccnc3C(F)(F)F)C2=O)c1 [Compound 369, 2-{3-[(1S,2R)-2-(4-methyl-4H-1,2,4-triazol-3-yl)cyclopropyl]phenyl}-4-(trifluoromethyl)-1H,2H,3H-pyrrolo[3,4-c]pyridin-1-one] | < 1 | < 1 | 1.01 to 2 | < 1 | 2.01 to 5 | 1.01 to 2 | ≤ 1.2 | 1.4 to 1.6 | ≤ 1.2 | 1.2 to 1.4 | ≤ 1.2 | ≤ 1.2 | ≤ 1.2 | ≤ 1.2 | ≤ 1.5 | < 2 | ≤ 1.5 | 2.01 to 4 | < 2 | 2.01 to 4 | fold induction at 1.11 µM [2, 12]: ≤ 1.5; fold induction at 1.11 µM [2, 13]: < 2; fold induction at 1.11 µM [2, 14]: ≤ 1.5; fold induction at 10 µM [2, 12]: ≤ 1.5; fold induction at 10 µM [2, 13]: < 2; fold induction at 10 µM [2, 14]: 1.51 to 2 |
| Cc1cc2c(c(C3CC3)n1)CN(c1cccc([C@H](C)Cc3nncn3C)c1)C2=O [Compound 372, 4-cyclopropyl-6-methyl-2-{3-[(2R)-1-(4-methyl-4H-1,2,4-triazol-3-yl)propan-2-yl]phenyl}-1H,2H,3H-pyrrolo[3,4-c]pyridin-1-one] | 1.01 to 2 | < 1 | 1.01 to 2 | < 1 | 2.01 to 5 | 1.01 to 2 | ≤ 1.2 | 1.2 to 1.4 | ≤ 1.2 | 1.2 to 1.4 | ≤ 1.2 | 1.2 to 1.4 | ≤ 1.2 | 1.2 to 1.4 | ≤ 1.5 | < 2 | ≤ 1.5 | 2.01 to 4 | < 2 | 2.01 to 4 | fold induction at 1.11 µM [2, 12]: ≤ 1.5; fold induction at 1.11 µM [2, 13]: < 2; fold induction at 1.11 µM [2, 14]: ≤ 1.5; fold induction at 10 µM [2, 12]: 1.51 to 2; fold induction at 10 µM [2, 13]: < 2; fold induction at 10 µM [2, 14]: ≤ 1.5 |
| CNCc1ccc(C(=O)Nc2cccc([C@H](C)Cc3nncn3C)c2)nc1C1CC1 [Compound 376, (R)-6-cyclopropyl-N-(3-(1-(4-methyl-4H-1,2,4-triazol-3-yl)propan-2-yl)phenyl)-5-((methylamino)methyl)picolinamide] | 1.01 to 2 | 1.01 to 2 | 1.01 to 2 | 1.01 to 2 | 2.01 to 5 | 2.01 to 5 | 1.4 to 1.6 | > 1.6 | 1.2 to 1.4 | 1.2 to 1.4 | > 1.6 | > 1.6 | 1.2 to 1.4 | 1.4 to 1.6 | 2.01 to 4 | < 2 | 2.01 to 4 | > 4 | < 2 | 2.01 to 4 | fold induction at 1.11 µM [2, 12]: 1.51 to 2; fold induction at 1.11 µM [2, 13]: 2.01 to 3; fold induction at 1.11 µM [2, 14]: ≤ 1.5; fold induction at 10 µM [2, 12]: 2.01 to 4; fold induction at 10 µM [2, 13]: 3.01 to 4; fold induction at 10 µM [2, 14]: 1.51 to 2 |
